Results taken from PubChem BioAssay (NCI).
Several values for one entry are separate records, joined by “and”; a condition that tells them apart may be missing. Equal values may be shown once.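 Five concentrations, 48 hours, 96-well plates. The concentration for 50% growth inhibition is given as GI50. TGI: total growth inhibition.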

Experiments:
Assay in all cases: inhibition of tumour cell growth, NCI panel, 48 h
CCRF-CEM leukemia = tested on: CCRF-CEM leukemia
HT29 colon = tested on: HT29 colon
K-562 leukemia = tested on: K-562 leukemia
LOX IMVI melanoma = tested on: LOX IMVI melanoma
NCI-H23 lung = tested on: NCI-H23 lung
SF-295 CNS = tested on: SF-295 CNS
T-47D breast = tested on: T-47D breast
U251 CNS = tested on: U251 CNS

SMILES	GI50 (CCRF-CEM leukemia)	TGI (CCRF-CEM leukemia)	GI50 (HT29 colon)	TGI (HT29 colon)	GI50 (K-562 leukemia)	TGI (K-562 leukemia)	GI50 (LOX IMVI melanoma)	TGI (LOX IMVI melanoma)	GI50 (NCI-H23 lung)	TGI (NCI-H23 lung)	GI50 (SF-295 CNS)	TGI (SF-295 CNS)	GI50 (T-47D breast)	TGI (T-47D breast)	GI50 (U251 CNS)	TGI (U251 CNS)
Cc1cc(I)cc(CNCCN(C)C)c1O	> 100 µM	> 100 µM	35.2 µM	> 100 µM	> 76.1 µM	> 100 µM	44.3 µM	> 100 µM	97.3 µM	> 100 µM	42.6 µM	> 88.1 µM	76.3 µM	> 100 µM	73.5 µM	> 100 µM
CN1C(=O)C(c2c[nH]c3ccccc23)=C(c2c[nH]c3ccccc23)C1=O	7.84 µM	> 25 µM	8.47 µM	> 25 µM	7.77 µM	> 25 µM	3.73 µM	9.3 µM	6.61 µM	> 25 µM	4.48 µM	11.8 µM	6.57 µM	> 25 µM	7.03 µM	> 25 µM
C=CCC1(O)c2ccccc2C(=O)c2c(OCC(=O)OCC)ccc(OCC(=O)OCC)c21 (stereo not given)	> 100 µM	> 100 µM	> 100 µM	> 100 µM	> 100 µM	> 100 µM	> 100 µM	> 100 µM	> 100 µM	> 100 µM	> 100 µM	> 100 µM	> 100 µM	> 100 µM	81 µM	> 100 µM
CC(C)(C)CC(C)(C)c1ccc(OCCO)cc1	6.02 µg/mL	40.1 µg/mL	10.6 µg/mL	28.1 µg/mL	0.887 µg/mL	> 75 µg/mL	2.19 µg/mL	11.2 µg/mL	1.33 µg/mL	20.9 µg/mL	1.07 µg/mL	8.56 µg/mL	2.1 µg/mL	18.3 µg/mL	5.34 µg/mL	19.6 µg/mL
C=CC1(C)CCC2C(=CCC3C2(C)CC(O)C(O)C3(C)COC2OC(CO)C(O)C(O)C2O)C1 (stereo not given)		> 100 µM		> 100 µM		> 100 µM		> 100 µM		> 100 µM		> 100 µM		> 100 µM		> 100 µM
N#CC1=C(N)Oc2c(sc3c(Br)cccc23)C1c1ccc([N+](=O)[O-])cc1 (stereo not given)	0.121 µM	9.89 µM	0.297 µM	3.2 µM	0.0458 µM	13.5 µM	0.127 µM	4.31 µM	0.131 µM	13.2 µM	0.0417 µM	11.1 µM	0.84 µM	25.3 µM	0.151 µM	11.8 µM
NS(=O)(=O)c1ccc(N(/C=C/C(=O)C(F)(F)F)CC(=O)c2ccc(F)cc2)cc1	15.6 µM	41.5 µM	35.2 µM	> 100 µM	14 µM	54.6 µM	13.8 µM	34.6 µM	20.4 µM	57.7 µM	26.4 µM	85.7 µM	43 µM	> 100 µM	18.4 µM	48.9 µM
Cn1cc(-c2ccc3nc(-c4ccc(CC(=O)Nc5cc(C(C)(C)C)no5)cc4)cnc3c2)cn1	0.692 µM	> 3 µM	0.0859 µM	> 3 µM	0.017 µM	> 3 µM	0.036 µM	> 3 µM	0.895 µM	> 3 µM	0.0563 µM	> 3 µM	0.0827 µM	> 3 µM	0.0298 µM	> 3 µM
Cc1c(Cl)cccc1C(=O)Nc1nc2c(s1)CN(C(=O)Nc1cccc(C(F)(F)F)c1)CC2	0.194 µM	> 50 µM	0.173 µM	> 23.3 µM	0.131 µM	> 50 µM	0.226 µM	11 µM	0.234 µM	> 50 µM	0.125 µM	> 41.6 µM	0.239 µM	> 50 µM	0.242 µM	> 50 µM
C[C@@H]1CN2[C@H]3[C@@H]1CC[C@]31CCC(=O)O[C@]1(C)[C@H]1CC[C@H]3CCC=C3[C@@H]12	> 30 µM	> 30 µM	> 30 µM	> 30 µM	> 30 µM	> 30 µM	> 30 µM	> 30 µM	> 30 µM	> 30 µM	> 30 µM	> 30 µM	> 30 µM	> 30 µM	> 30 µM	> 30 µM
CC1=C(CCCOC(=O)[C@H](N)CC(C)C)C2=C(C)C3(CC3)[C@@](C)(O)C(=O)C2=C1	22.9 µM	> 100 µM	2.22 µM	6.02 µM	34.3 µM	> 100 µM	2.42 µM	8.9 µM	0.367 µM	3.23 µM	2.19 µM	> 31.2 µM	1.84 µM	6.53 µM	2.53 µM	13.7 µM
COc1cc2c(c3oc(-c4ccc(O)cc4)c(O)c(=O)c13)CCC(C)(C)O2	0.359 µM	> 100 µM	3.12 µM	10.9 µM	0.112 µM		0.104 µM	0.328 µM	0.0836 µM	0.221 µM	0.0426 µM	0.194 µM	0.767 µM		0.107 µM	0.8 µM
Cc1ccc(NC(=O)c2ccc(CN3CCN(C)CC3)cc2)cc1Nc1nc(-c2cccnc2)cs1	4.14 µM and 4.81 µM	28.1 µM and > 10 µM	3.5 µM and 3.23 µM	13.7 µM and > 10 µM	0.617 µM and 2.96 µM	> 100 µM	2.47 µM and 3.06 µM	5.8 µM and > 10 µM	12.6 µM and > 10 µM	29.7 µM and > 10 µM	3.3 µM and 1.92 µM	13.8 µM and 5.48 µM	4.89 µM and 1.87 µM	22 µM and 7.06 µM	3.74 µM and 2.92 µM	14 µM and > 10 µM
Sc1cccc2cccnc12	0.392 µM	24.5 µM	0.918 µM	11.2 µM	0.385 µM	> 52 µM	0.57 µM	11.1 µM	1.91 µM	16.8 µM	0.645 µM	12.8 µM	3.07 µM	12.3 µM	0.598 µM	13.9 µM
O=C(CCCc1ccc(N(CCCl)CCCl)cc1)NCc1ccccc1	3.24 µM	25.4 µM	8.21 µM	52 µM	7.43 µM	54.3 µM	5.37 µM	23.9 µM	4.77 µM	33.1 µM	3.23 µM	28.6 µM	8.04 µM	87.1 µM	6.6 µM	43.4 µM
